Laboratory results reported in US20230167088A1, “1-PYRAZINYLPYRAZOLYL-3-OXYALKYL ACIDS AND THEIR DERIVATIVES, AND THEIR USE FOR CONTROL OF UNDESIRED PLANT GROWTH” (BAYER AKTIENGESELLSCHAFT, priority 2020, published 2023).

Tests used:
harmful plants = test: Herbicidal pre-emergence action 2a, summary across species; format: in vivo; details: Tables B1 to B15 (320 g/ha and/or 80 g/ha)
Source text: a) Seeds of monocotyledonous and dicotyledonous weed plants and crop plants are placed in plastic or organic plant pots and covered with soil. The compounds of the invention, formulated in the form of wettable powders (WP) or as emulsion concentrates (EC), are then applied onto the surface of the covering soil as aqueous suspension or emulsion with addition of 0.5% additive at a water application rate of 600 1/ha (converted). After the treatment, the pots are placed in a greenhouse and kept under good growth conditions for the trial plants. After about 3 weeks, the effect of the preparations is scored visually in comparison with untreated controls as percentages. For example, 100% activity=the plants have died, 0% activity=like control plants.
Tables B1 to B15 below show the effects of selected compounds of the general formula (I) according to Tables 1 and 2 on various harmful plants and an application rate corresponding to 320 g/ha and/or 80 g/ha, which were obtained by the experimental procedure mentioned above.
For example, compound nos. I-07, I-08, I-11, I-12, I-13, I-16, I-17, I-20, I-36, I-37, I-39, I-45, I-46, I-48, I-52 and I-53 in the pre-emergence method have very good action (80% to 100% herbicidal activity) against harmful plants such as Alopecurus myosuroides, Amaranthus retroflexus, Digitaria sanguinalis, Lolium rigidum, Polygonum convolvulus, Setaria viridis, Veronica persica and Viola tricolor at an application rate of 0.32 kg of active substance per hectare.

AMARE = test: Herbicidal pre-emergence action 2b (doubly sown, 1280 g/ha); format: in vivo, Amaranthus retroflexus; details: doubly sown pots, dosage 1280 g/ha, visual scoring after about 3 weeks
Summary of the method: (§1)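 Sandy loam pots, one mono- or dicot species each, double sowing; seeds covered. Aqueous WP/EC spray + 0.5% additive, 600 L/ha, onto cover soil. GH, ~3 wk, visual % vs control.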

PHBPU = test: Herbicidal post-emergence action 1a (greenhouse pots, visual rating); format: in vivo, Pharbitis purpurea; details: visual rating about 3 weeks after treatment
Summary of the method: (§2)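 Visual scoring versus untreated plants (100% = plants dead, 0% = as control) followed roughly 3 weeks in the greenhouse after treatment. Plants grown in sandy loam pots had been sprayed on green parts at the one-leaf stage, 2–3 weeks post-sowing, with aqueous WP/EC preparations containing 0.5% additive, 600 l/ha, at 320 and/or 80 g/ha.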

ALOMY [1] = test: Herbicidal pre-emergence action 2a (greenhouse pots, visual scoring); format: in vivo, Alopecurus myosuroides; details: dosage 320 g/ha, visual scoring after about 3 weeks
Summary of the method: (§3)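 The soil covering sown seeds is treated with an aqueous suspension or emulsion of wettable powder or emulsion concentrate (0.5% additive, 600 l/ha), corresponding to 320 g/ha and/or 80 g/ha. After about 3 weeks of greenhouse growth, damage is scored visually as a percentage.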

DIGSA [2] = test: Herbicidal post-emergence action 1a (greenhouse pots, visual rating); format: in vivo, Digitaria sanguinalis; details: rated visually about 3 weeks after treatment, 100% = plants have died, 0% = like control plants
Summary of the method: as §2

STEME [3] = test: Herbicidal post-emergence action 1b (twin sowing, 1280 g/ha); format: in vivo, Stellaria media; details: dosage 1280 g/ha, visual rating about 3 weeks after treatment
Summary of the method: (§4)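 Compounds, formulated as wettable powders or emulsion concentrates, were applied to foliage of greenhouse-grown weeds at the one-leaf stage with 0.5% additive in 600 L/ha water. Pots held one monocot and one dicot species in sandy loam. Efficacy was scored visually after about 3 weeks versus controls.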

STEME [4] = test: Herbicidal pre-emergence action 2b (doubly sown, 1280 g/ha); format: in vivo, Stellaria media; details: doubly sown pots, dosage 1280 g/ha, visual scoring after about 3 weeks
Summary of the method: as §1

DIGSA [5] = test: Herbicidal post-emergence action 1b (twin sowing, 1280 g/ha); format: in vivo, Digitaria sanguinalis; details: dosage 1280 g/ha, visual rating about 3 weeks after treatment
Summary of the method: as §4

ALOMY [6] = test: Herbicidal post-emergence action 1a (greenhouse pots, visual rating); format: in vivo, Alopecurus myosuroides; details: rated visually about 3 weeks after treatment, 100% = plants have died, 0% = like control plants
Summary of the method: as §2

POLCO = test: Herbicidal pre-emergence action 2a (greenhouse pots, visual scoring); format: in vivo, Polygonum convolvulus; details: dosage 320 g/ha, visual scoring after about 3 weeks vs untreated controls
Summary of the method: as §3

SMILES: COC(=O)[C@@H](C)Oc1nn(-c2cnccn2)c(-c2ccc(F)nc2)c1Cl [Example I-36]
- herbicidal efficacy against harmful plants in the case of pre-emergence treatment (in words) (harmful plants): good herbicidal efficacy
- Pre-emergence action at 1280 g/ha against AMARE in % (AMARE): 100%
- Post-emergence action against PHBPU in % (PHBPU; dosage 80 g/ha): 90%
- Post-emergence action against PHBPU in % (PHBPU; dosage 320 g/ha): 90%
- Pre-emergence action against ALOMY in % (ALOMY [1]): 100%
- Post-emergence action against DIGSA in % (DIGSA [2]; Dosage 80 g/ha): 80%
- Post-emergence action against DIGSA in % (DIGSA [2]; Dosage 320 g/ha): 90%
- Post-emergence action at 1280 g/ha against STEME in % (STEME [3]): 100%
- Pre-emergence action at 1280 g/ha against STEME in % (STEME [4]): 100%
- Post-emergence action at 1280 g/ha against DIGSA in % (DIGSA [5]): 100%
- Post-emergence action against ALOMY in % (ALOMY [6]; Dosage 320 g/ha): 100%
- Pre-emergence action against POLCO in % (POLCO): 100%

SMILES: COC(=O)[C@@H](C)Oc1nn(-c2cnccn2)c(-c2cncc(F)c2)c1C#N [Example I-40]
- Pre-emergence action at 1280 g/ha against AMARE in % (AMARE): 100%
- Post-emergence action against PHBPU in % (PHBPU; dosage 320 g/ha): 90%
- Pre-emergence action against ALOMY in % (ALOMY [1]): 100%
- Post-emergence action against DIGSA in % (DIGSA [2]; Dosage 320 g/ha): 80%
- Post-emergence action at 1280 g/ha against STEME in % (STEME [3]): 100%
- Pre-emergence action at 1280 g/ha against STEME in % (STEME [4]): 100%
- Post-emergence action at 1280 g/ha against DIGSA in % (DIGSA [5]): 90%
- Post-emergence action against ALOMY in % (ALOMY [6]; Dosage 80 g/ha): 80%
- Post-emergence action against ALOMY in % (ALOMY [6]; Dosage 320 g/ha): 90%
- Pre-emergence action against POLCO in % (POLCO): 80%

SMILES: COC(=O)[C@@H](C)Oc1nn(-c2cnccn2)c(-c2ccc(F)c(F)c2)c1Br [Example I-45]
- herbicidal efficacy against harmful plants in the case of pre-emergence treatment (in words) (harmful plants): good herbicidal efficacy
- Pre-emergence action at 1280 g/ha against AMARE in % (AMARE): 100%
- Post-emergence action against PHBPU in % (PHBPU; dosage 320 g/ha): 90%
- Pre-emergence action against ALOMY in % (ALOMY [1]): 100%
- Post-emergence action at 1280 g/ha against STEME in % (STEME [3]): 100%
- Pre-emergence action at 1280 g/ha against STEME in % (STEME [4]): 100%
- Post-emergence action at 1280 g/ha against DIGSA in % (DIGSA [5]): 100%
- Post-emergence action against ALOMY in % (ALOMY [6]; Dosage 80 g/ha): 90%
- Post-emergence action against ALOMY in % (ALOMY [6]; Dosage 320 g/ha): 90%
- Pre-emergence action against POLCO in % (POLCO): 100%

SMILES: COC(=O)[C@@H](C)Oc1nn(-c2cnccn2)c(-c2ccc(F)c(F)c2)c1C#N [Example I-46]
- herbicidal efficacy against harmful plants in the case of pre-emergence treatment (in words) (harmful plants): good herbicidal efficacy
- Pre-emergence action at 1280 g/ha against AMARE in % (AMARE): 100%
- Pre-emergence action against ALOMY in % (ALOMY [1]): 100%
- Post-emergence action at 1280 g/ha against STEME in % (STEME [3]): 90%
- Pre-emergence action at 1280 g/ha against STEME in % (STEME [4]): 100%
- Post-emergence action at 1280 g/ha against DIGSA in % (DIGSA [5]): 100%
- Post-emergence action against ALOMY in % (ALOMY [6]; Dosage 80 g/ha): 90%
- Post-emergence action against ALOMY in % (ALOMY [6]; Dosage 320 g/ha): 90%
- Pre-emergence action against POLCO in % (POLCO): 100%

SMILES: C[C@@H](Oc1nn(-c2cnccn2)c(-c2cccc(F)c2)c1Br)C(=O)O [Example I-48]
- herbicidal efficacy against harmful plants in the case of pre-emergence treatment (in words) (harmful plants): good herbicidal efficacy
- Pre-emergence action at 1280 g/ha against AMARE in % (AMARE): 100%
- Pre-emergence action against ALOMY in % (ALOMY [1]): 100%
- Post-emergence action at 1280 g/ha against STEME in % (STEME [3]): 100%
- Pre-emergence action at 1280 g/ha against STEME in % (STEME [4]): 100%
- Post-emergence action against ALOMY in % (ALOMY [6]; Dosage 80 g/ha): 90%
- Pre-emergence action against POLCO in % (POLCO): 100%

SMILES: CCOC(=O)COc1nn(-c2cnccn2)c(-c2ccc(F)nc2)c1Br [Example I-52, ethyl {[4-bromo-5-(6-fluoropyridin-3-yl)-1-(pyrazin-2-yl)-1H-pyrazol-3-yl]oxy}acetate]
- herbicidal efficacy against harmful plants in the case of pre-emergence treatment (in words) (harmful plants): good herbicidal efficacy
- Pre-emergence action at 1280 g/ha against AMARE in % (AMARE): 90%
- Post-emergence action against PHBPU in % (PHBPU; dosage 80 g/ha): 80%
- Pre-emergence action against ALOMY in % (ALOMY [1]): 90%
- Pre-emergence action at 1280 g/ha against STEME in % (STEME [4]): 100%
- Post-emergence action against ALOMY in % (ALOMY [6]; Dosage 80 g/ha): 80%
- Post-emergence action against ALOMY in % (ALOMY [6]; Dosage 320 g/ha): 90%
- Pre-emergence action against POLCO in % (POLCO): 80%

SMILES: CCOC(=O)COc1nn(-c2cnccn2)c(-c2ccc(F)nc2)c1Cl [Example I-53]
- herbicidal efficacy against harmful plants in the case of pre-emergence treatment (in words) (harmful plants): good herbicidal efficacy
- Pre-emergence action at 1280 g/ha against AMARE in % (AMARE): 100%
- Post-emergence action against PHBPU in % (PHBPU; dosage 80 g/ha): 80%
- Pre-emergence action against ALOMY in % (ALOMY [1]): 100%
- Post-emergence action against DIGSA in % (DIGSA [2]; Dosage 80 g/ha): 90%
- Post-emergence action at 1280 g/ha against STEME in % (STEME [3]): 100%
- Pre-emergence action at 1280 g/ha against STEME in % (STEME [4]): 100%
- Post-emergence action at 1280 g/ha against DIGSA in % (DIGSA [5]): 100%
- Pre-emergence action against POLCO in % (POLCO): 90%
